The source of these data is patent US20180346731A1, “Formation of Stable Pyranoanthocyanins, and Uses Thereof as Sources of Natural Color” (Ohio State Innovation Foundation, priority 2017, published 2018).

Data set [1] in a line: Colorimetry (CIEL*c*h*, ΔE2000) of anthocyanin isolates treated with pyruvic acid, 31 days storage. The data set is classed as physicochemical. The note with it: day 0 vs day 31, Delta E2000. As to the method:
Prior to dilution, the concentrations of the isolated pigment extracts were determined by the pH differential method for subsequent dilution to known concentrations. The isolates were then diluted to 500 μM (expressed as Cyanidin-3-glucoside equivalents) in pH 2.5 deionized water (previously adjusted with HCl) which contained 0.1% potassium sorbate (w/v) and 0.1% sodium benzoate (w/v) to function as preservative agents during storage. A pH of 2.5 was selected as a compromise of several variables: the flavylium form was predominant, the effect of pKh was minimized, and it is a relevant pH for wines. It has been reported that the pKh's of cy3 gal, cy3xylgal, and cy3xylglugal ranges from 3.01 to 3.26. Working at pH 2.5 largely avoided the effect of different equilibrium forms while also maintaining a pH that is similar to that of wines where these compounds are commonly formed. Control samples of each isolate were prepared and contained no pyruvic acid. For treatments containing pyruvic acid, a previously diluted pyruvic acid standard (pyruvic acid in the same pH 2.5 water containing preservatives) was added to obtain concentrations 100× the molar ratio of anthocyanins (50 mM of pyruvic acid). All treatments were brought to the same final volume by the addition of more pH 2.5 water. Samples were filtered through a 0.2 μm membrane into 1.5 mL glass HPLC vials. Vials were capped and stored in an incubator in the dark at 25° C. for a 31 day duration (Fisher Scientific, Waltham, Mass., U.S.). All treatments were prepared in triplicate.
Colorimetric data of samples was calculated from spectra of samples collected from the plate reader with ColorBySpectra. Absorbance data was obtained and conversion to color values was achieved using the following settings: regular transmission, D65 illuminant, and 10° observer angle. Values reported are in the CIEL*c*h* scale. After storage for 31 days, the mathematical differences in color (ΔE) were calculated according to the CIE-L*a*b* Delta E2000 equation. Colorimetric data of the samples containing pyruvic acid was used to correlate with pyranoanthocyanins formation. Spectral absorbance data of the peaks of the anthocyanins and their respective pyranoanthocyanins were also collected from the PDA during uHPLC analyses and converted to colorimetric data using ColorBySpectra under the settings described above. The spectra was obtained from the time of elution of the target compound and then standardized to an absorbance of 1.0 at λvis-max.

A short description of data set [2]: UV-Vis absorbance loss and first-order bleaching kinetics of pigment solutions with ascorbic acid (pH 3.0 citrate buffer, 25° C., dark). The data set is classed as physicochemical. The note with it: for K (reaction rate, first-order) / t1/2: 25° C. dark. As to the method: The semi-purified chokeberry extract, the isolated cyanidin-3-galactoside, and the purified 5-carboxypyranocyanidin-3-galactoside were diluted in pH 3.0 citrate buffer (0.1 M adjusted with HCl) until an absorbance of 1.0 at their respective λmax was reached. Levels of AA of 250, 500, and 1000 mg/L were added using a concentrated ascorbic acid stock solution, and a control consisting of each pigment with the absence of AA was maintained. The control consisted of the pigment in the buffer in the absence of AA. An additional test was performed with the same model juice using hydrogen peroxide, a known degradation product of AA. To determine if AA bleaching was due to formation of H2O2, direct addition of it was investigated. In place of added AA, a 62.2 μL of a 0.3% peroxide solution was added to match the molar equivalency of the 500 mg/L AA level, which was 2.84 mM. All samples were brought to the same final volume with additional citrate buffer. […] Samples were stored in the dark at 25° C. in an incubator. UV-Vis spectrophotometry, colorimetry, and HPLC analyses were conducted over a 5 day period following the addition of ascorbic acid or hydrogen peroxide. UV-Vis spectral data was collected every hour for the first 8 hours, and then at 12 hr, and daily from that point on for 5 days. […] HPLC analyses were conducted on days 0, 1, 3, and 5. All treatments were run in triplicate. A SpectraMax 190 Microplate Reader (Molecular Devices, Sunnyvale, Calif., U.S.) with a 96-well plate (poly-D-lysine coated polystyrene) were used for the evaluation of absorbance from 380-700 nm, 1 nm intervals. Aliquots (200 uL) of samples were loaded into individual wells, and a blank consisted of the same citrate buffer used. Because of the rapid nature of AA-induced color loss, degradation kinetics were evaluated in terms of change in maximum absorbance at the original λmax over time. Bleaching is a first-order reaction, typical of ACN degradation, and was modeled as such in determining the reaction rate and half-life. The decrease in maximum absorbance correlated with an increase in lightness (L*) as well as the decrease in chroma (c*). The reduction in maximum absorbance did closely follow first-order kinetics for chokeberry extract and cyanidin-3-galactoside but slightly deviated for 5-carboxypyranocyanidin-3-galactoside. […] The kinetics results for each pigment and AA level can be found in Table 3 below.

Each structure is given as a SMILES string.

With `OC[C@H]1O[C@@H](Oc2cc3c(O)cc(O)cc3[o+]c2-c2ccc(O)c(O)c2)[C@H](O)[C@@H](O)[C@H]1O` [Cyanidin-3-galactoside, cyanidin-3-galactoside], the “total color change (ΔE)” value in data set [1] is on record as 8.2. Besides, the “K (reaction rate, first-order)” value worked out at 3.18E−02 in data set [2] (250 mg/L AA); 5.90E−02 in data set [2] (500 mg/L AA); 8.64E−02 in data set [2] (1000 mg/L AA); 1.27E−03 in data set [2] (Control, no AA, absorbance at λvis-max). The t1/2 in data set [2] (250 mg/L AA) was 22 h; in data set [2] (500 mg/L AA), 12 h; in data set [2] (1000 mg/L AA), 8 h; in data set [2] (Control, no AA), 546 h. Also, in data set [2] (500 mg/L AA, 5 day period), the “reduction in maximum absorbance” value amounted to 88%. In data set [2] (500 mg/L AA, after treatment), the “λmax after hypsochromic change” value turned out to be 509 nm. In data set [2] (500 mg/L AA, start), the “λmax before hypsochromic change” value is recorded as 511 nm. In addition, the “slope of reaction rate vs AA level (susceptibility to AA), relative to 5-carboxypyranocyanidin-3-galactoside” value in data set [2] (AA 0-1000 mg/L) came to 8.2 ×. Moreover, the “slope of reaction rate vs AA level, relative to chokeberry extract” value in data set [2] (AA 0-1000 mg/L) is recorded as 3.1 ×. For the same molecule, the “time before a significant difference (p<0.05) in maximum absorbance from time 0” value in data set [2] (all levels of AA added) amounted to 2 h.
